From the supplement of paper PMC10307832 come the findings set out here.

What all share (assay): relative viability (nuclei count vs DMSO), 5 days (fraction); higher = more cells survive
Compound in the assay “Apatinib + Bortezomib”: N#CC1(c2ccc(NC(=O)c3cccnc3NCc3ccncc3)cc2)CCCC1 [Apatinib] + CC(C)C[C@H](NC(=O)[C@H](Cc1ccccc1)NC(=O)c1cnccn1)B(O)O [Bortezomib] (partner 0.002 µM)
In outline: (§1)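 Relative viability was taken as the ratio of nuclei in treated wells to nuclei in vehicle wells. Lung cancer cell lines in 1536-well plates received compounds by pin tool one day after seeding, either one drug alone or a fixed anchor-drug dose plus five library-drug doses (not always all listed) in √10 steps. Nuclei were counted on 4× images after 5 days of treatment, and values are medians of duplicate plates.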

Compound in the assay “Metformin + Olaparib”: CN(C)C(=N)NC(=N)N [Metformin] + O=C(c1cc(Cc2n[nH]c(=O)c3ccccc23)ccc1F)N1CCN(C(=O)C2CC2)CC1 [Olaparib] (partner 8 µM)
In outline:
as §1

Compound in the assay “Apatinib + Vorinostat”: N#CC1(c2ccc(NC(=O)c3cccnc3NCc3ccncc3)cc2)CCCC1 [Apatinib] + O=C(CCCCCCC(=O)Nc1ccccc1)NO [Vorinostat] (partner 1 µM)
In outline:
as §1

Compound in the assay “Apatinib + Foretinib”: N#CC1(c2ccc(NC(=O)c3cccnc3NCc3ccncc3)cc2)CCCC1 [Apatinib] + COc1cc2c(Oc3ccc(NC(=O)C4(C(=O)Nc5ccc(F)cc5)CC4)cc3F)ccnc2cc1OCCCN1CCOCC1 [Foretinib] (partner 0.25 µM)
In outline:
as §1

In the case of NCI-H460, the relative viability with Apatinib + Bortezomib (first compound 0.08 µM) turned out to be 1.11; in the assay with Apatinib + Bortezomib (first compound 0.253 µM), 1.03; in the assay with Apatinib + Bortezomib (first compound 0.8 µM) it was 0.888; with Apatinib + Bortezomib (first compound 2.53 µM) it was 0.98; in the assay with Apatinib + Bortezomib (first compound 8 µM) it was 1.01; with Metformin + Olaparib (first compound 31.62 µM), 0.412. Further, the relative viability with Metformin + Olaparib (first compound 100 µM) stood at 0.422; in the assay with Metformin + Olaparib (first compound 316.23 µM), 0.294; with Metformin + Olaparib (first compound 1000 µM) it was 0.262; with Apatinib + Vorinostat (first compound 0.08 µM), 0.741; with Apatinib + Vorinostat (first compound 0.253 µM), 0.73; in the assay with Apatinib + Vorinostat (first compound 0.8 µM), 0.623. Besides, the relative viability with Apatinib + Vorinostat (first compound 2.53 µM) is 0.577; with Apatinib + Vorinostat (first compound 8 µM) it was 0.417; in the assay with Apatinib + Foretinib (first compound 0.08 µM), 0.941; with Apatinib + Foretinib (first compound 0.253 µM), 0.943; in the assay with Apatinib + Foretinib (first compound 0.8 µM), 0.942; with Apatinib + Foretinib (first compound 2.53 µM) it was 1.04. Besides, the relative viability with Apatinib + Foretinib (first compound 8 µM) worked out at 0.897.
